Laboratory results: patent US9988406B2, “Forms of R)-3-(4-(2-(2-methyltetrazol-5-yl)pyridin-5-yl)-3-fluorophenyl)-5-hydroxymethyl oxazolidin-2-one dihydrogen phosphate” (Merck Sharp & Dohme Corp., priority 2009, dated 2018)

Experiments:
[1] = hygroscopicity / water content of the free acid and salt forms; format: physicochemical
[2] = stability of the crystalline free acid and salt forms; format: physicochemical

Compound | hygroscopicity (in words) [1] | water content ([1]; material as prepared) | stability of the crystalline form (in words) [2]
Cn1nnc(-c2ccc(-c3ccc(N4CC(COP(=O)([O-])O)OC4=O)cc3F)cn2)n1.[Na+] (stereo not shown) [mono-sodium salt] | very hygroscopic | over 10 % by weight | –
(R)-3-(4-(2-(2-methyltetrazol-5-yl)pyridin-5-yl)-3-fluorophenyl)-5-hydroxymethyl oxazolidin-2-one dihydrogen phosphate [free acid] | non-hygroscopic | – | very stable at a relatively high temperature
